Assay results: US20040132639A1, “Combined use of enzyme inhibitors and pharmaceutical preparations thereof for the treatment and a prophylaxis of arteriosclerosis, for the treatment and prevention of allergic reactions of type I according to the gell and coombs classification and for the treatment and prevention of dermatological …” (priority 2001, published 2004)

Legend:
Assay type in all cases: cell-based
[1] = tested on: KARPAS-299 cells; test: Proliferation of human T cell line KARPAS-299 (WST-1 Cell-Proliferation Assay); details: single and simultaneous administration of I49 and APN inhibitors actinonine and probestine; 72 h; Example 8, FIG. 8
Protocol: (§1) FIG. 8: The KARPAS-299-cells were incubated for a time period of 72 hours without (control) and with the above-indicated inhibitors singly or in combination. Subsequently, there was carried out a determination of the number of metabolically active cells by using the commercially available WST-1 Cell-Proliferation Assay (Takara Inc.) in accordance with the proposals of the manufacturer.

[2] = tested on: activated human peripheric T cells; test: Proliferation of activated human peripheric T cells (WST-1 Cell-Proliferation Assay); details: single and simultaneous administration of I49 and APN inhibitors actinonine and probestine; activation by phytohemagglutinine and phorbol-12-myristate-13-acetate; 72 h; Example 9, FIG. 9
Protocol: FIG. 9: The T cells with the exception of the untreated control, were activated by an addition of phytohemagglutinine and phorbol-12-myristate-13-acetate to the culture medium and were incubated for a time of 72 hours in the presence of the above inhibitors singly or in combination. Subsequently, there was carried out a determination of the number of metabolically active cells by using the commercially available WST-1 Cell-Proliferation Assay (Takara Inc.) in accordance with the proposals of the manufacturer.

[3] = tested on: pokeweed-mitogene stimulated human MNC of the peripheral blood; test: DNA synthesis of pokeweed-mitogene stimulated human MNC (3[H]-thymidine incorporation); details: simultaneous administration of DP IV inhibitor I49 and APN inhibitor bestatine; PWM 2 μg/ml; 72 h; Example 11, FIG. 11
Protocol: The MNC were incubated for 72 hours in the presence of pokeweed-mitogene and of said inhibitors, and the DNA synthesis was determined subsequently by a measurement of the ^3[H]-thymidine-incorporation, is described by Reinhold et al. (Reinhold D et al.: Inhibitors of dipeptidyl peptidase IV induce secretion of transforming growth factor β1 in PWM-stimulated PBMNC and T cells. Immunology 1997; 91; 354-360).
FIG. 11: Synergistic and dose-dependent effect of inhibitors of DP IV (I49) and of aminopeptidase N (bestatine) on the DNA synthesis of human PWM-stimulated MNC. Human peripheric MNC were incubated for three days with PWM (2 μg/ml) and the above-indicated concentration of inhibitors. Subsequently, ^3[H]-methyl thymidine was added to the culture medium, and the amount of ^3[H]-thymidine incorporated into the DNA was measured after further 6 hours.

[4] = tested on: IL-4 production by pokeweed-mitogene stimulated human mononuclear cells (MNC); test: IL-4 production by pokeweed-mitogene stimulated human MNC (IL-4 ELISA); details: simultaneous administration of DP IV inhibitor I49 and APN inhibitor bestatine; PWM 2 μg/ml; 48 h; culture supernatants; Example 12, FIG. 12
Protocol: The MNC were incubated for 48 hours in the presence of pokeweed-mitogene and of said inhibitors, and the concentration of IL-4 was subsequently determined in the respective culture supernatants by means of commercially available IL-4 analysis kids (ELISA) as described by Reinhold et al. (Reinhold D et al.: Inhibitors of dipeptidyl peptidase IV induce secretion of transforming growth factor β1 in PWM-stimulated PBMNC and T cells. Immunology 1997; 91; 354-360).
FIG. 12: Synergistic and dose-dependent effect of inhibitors of DP IV (I49) and of aminopeptidase N (bestatine) on the IL-4-production by human, PWM-stimulated MNC. Human peripheric MNC were incubated for 48 hours with PWM (2 μg/ml) and with the above-indicated concentrations of the inhibitors. Subsequently, the concentration of IL-4 in the respective culture supernatants were measured by means of IL-4-ELISA.

[5] = tested on: human HaCaT keratinocytes; test: DNA synthesis of human HaCaT keratinocytes (3[H]-thymidine incorporation); details: simultaneous administration of DP IV inhibitor I49 and APN inhibitor actinonine; 48 h; Example 13, FIG. 14
Protocol: HaCaT cells were incubated for 48 hours in presence of the above-mentioned inhibitors, and the DNA synthesis was subsequently determined by a measurement of ^3[H]-thymidine-incorporation, as described by Reinhold et al. (Reinhold D et al.: Inhibitors of dipeptidyl peptidase IV induce secretion of transforming growth factor β1 in PWM-stimulated PBMNC and T cells. Immunology 1997; 91; 354-360).
FIG. 14: Synergistic and dose-dependant effect of inhibitors of DP IV (I49) and of aminopeptidase N (actinonine) on the DNA synthesis of human HaCaT keratinocytes. The cells were incubated for 48 hours with the above-indicated concentrations of inhibitors. Subsequently, ^3[H]-methyl thymidine was added to the culture medium, and after further 6 hours, the amount of ^3[H]-thymidine incorporated into the DNA was measured.

[6] = tested on: human peripheric mononuclear cells (MNC); test: DNA synthesis of human peripheric mononuclear cells (3[H]-thymidine incorporation); details: 72 h incubation
Protocol: (§2) The MNC were incubated for 72 h in the presence of said inhibitors, and the DNA synthesis was determined subsequently by a measurement of the ^3[H]-thymidine incorporation, as described by Reinhold et al. (Reinhold D. et al.: Inhibitors of dipeptidyl peptidase IV induce secretion of transforming growth factor β1 in PWM-stimulated PBMNC and T cells; Immunology 1997, 91: 354-360).
(§3) FIG. 2: Synergistic and dose-dependent effect of inhibitors of DP IV (I49) and of APN (actinonine) on the DNA synthesis of human mononuclear cells (MNC). Human MNC were incubated for three days with the above-indicated concentrations of the inhibitors. Subsequently, ^3[H]-methyl thymidine was added to the culture medium, and after further 6 hours, the ^3[H]-thymidine amount incorporated into the DNA was measured.
as §3, with “4: Enhanced” for “2: Synergistic”, “prolyl oligopeptidase (Boc-Ala-Thia)” for “APN (actinonine)”
as §3, with “6:” for “2:”, “angiotensin-converting enzyme (captopril)” for “APN (actinonine)”

[7] = tested on: PHA-activated human mononuclear cells (MNC); test: Proliferation of PHA-activated human MNC (WST-1 Cell-Proliferation Assay); details: 72 h
Protocol: FIG. 7: The MNC were incubated for the time of 72 hours without (control), with mitogenic lectin phytohemagglutinine (PHA) or with PHA plus the inhibitors indicated. Subsequently, there was carried out a determination of the number of metabolically active cells by using the commercially available WST-1 Cell-Proliferation Assay (Takara Inc.) in accordance with the proposals of the manufacturer.
as §1, with “10:” for “8:”, “mononuclear cells (MNC)” for “KARPAS-299-cells”, “time” for “time period”, “in the presence of” for “without (control) and with”

[8] = tested on: human peripheric T lymphocytes; test: DNA synthesis of human T lymphocytes (3[H]-thymidine incorporation); details: 72 h incubation
Protocol: as §2, with “The T cells” for “The MNC”
as §3, with “1:” for “2:”, “aminopeptidase N” for “APN”, “T lymphocytes. Human peripheric T” for “mononuclear”, “cells” for “cells (MNC). Human MNC”
as §3, with “3:” for “2:”, “prolyl oligopeptidase (Boc-Ala-Thia)” for “APN (actinonine)”, “peripheric T lymphocytes. Human T” for “mononuclear”, “cells” for “cells (MNC). Human MNC”
FIG. 5: Synergistic and dose-dependent effect of inhibitors of DP IV (I49) and of angiotensin-converting enzyme (captopril) on the DNA synthesis of human peripheric T lymphocytes.
Human T cells were incubated for three days with the above-indicated concentrations of the inhibitors. Subsequently, ^3[H]-methyl thymidine was added to the culture medium, and after further 6 hours, the ^3[H]-thymidine amount incorporated into the DNA was measured.

[9] = simultaneous administration of DP IV inhibitor I49 and ACE inhibitor captopril, Example 6, FIG. 6
[10] = simultaneous administration of DP IV inhibitor I49 and APN inhibitor actinonine, Example 2, FIG. 2
[11] = simultaneous administration of DP IV inhibitor I49 and prolyl oligopeptidase inhibitor Boc-Ala thiazolidide, Example 4, FIG. 4
[12] = single and simultaneous administration of I49 and X-Pro-aminopeptidase (APP) inhibitor apstatine, Example 10, FIG. 10
[13] = single and simultaneous administration of I49 and actinonine, PHA, Example 7, FIG. 7
[14] = simultaneous administration of DP IV inhibitor I49 and ACE inhibitor captopril, Example 5, FIG. 5
[15] = simultaneous administration of DP IV inhibitor I49 and APN inhibitor actinonine, Example 1, FIG. 1
[16] = simultaneous administration of DP IV inhibitor I49 and prolyl oligopeptidase inhibitor Boc-Ala thiazolidide, Example 3, FIG. 3

Probestine
inhibition of proliferation (number of metabolically active cells) [1]: Inhibition of the Proliferation
inhibition of proliferation (number of metabolically active cells) [2]: Inhibition of the Proliferation

CC(C)C[C@H](NC(=O)[C@@H](O)[C@H](N)Cc1ccccc1)C(=O)O [Bestatine]
inhibition of DNA synthesis [3]: inhibited, in a more than additive manner
inhibition of IL-4 production [4]: inhibited, in a more than additive to superadditive manner

N[C@@H](CCCCNC(=O)OCc1ccc([N+](=O)[O-])cc1)C(=O)N1CCSC1 [I49, Lys[Z(NO2)]-thiazolidide]
inhibition of proliferation (number of metabolically active cells) [1]: Inhibition of the Proliferation
inhibition of DNA synthesis [5]: inhibited, in a more than additive and, at lower concentrations, also in a superadditive manner
inhibition of DNA synthesis [6, 9]: inhibited, in a more than additive to superadditive manner
inhibition of DNA synthesis [6, 10]: inhibited, in a more than additive to superadditive manner
inhibition of DNA synthesis [6, 11]: inhibited, in an increased manner
inhibition of proliferation (number of metabolically active cells) [7, 12]: Inhibition of the Proliferation
inhibition of proliferation (number of metabolically active cells) [7, 13]: Inhibition of the Proliferation
inhibition of DNA synthesis [3]: inhibited, in a more than additive manner
inhibition of proliferation (number of metabolically active cells) [2]: Inhibition of the Proliferation
inhibition of DNA synthesis [8, 14]: inhibited, in a more than additive to superadditive manner
inhibition of DNA synthesis [8, 15]: inhibited, in a more than additive to superadditive manner
inhibition of DNA synthesis [8, 16]: inhibited, in a more than additive to superadditive manner
inhibition of IL-4 production [4]: inhibited, in a more than additive to superadditive manner

C[C@H](NC(=O)[C@@H]1CCCN1C(=O)[C@@H]1CCCN1C(=O)[C@@H](O)[C@H](N)Cc1ccccc1)C(N)=O [Apstatine]
inhibition of proliferation (number of metabolically active cells) [7, 12]: Inhibition of the Proliferation

CCCCC[C@H](CC(=O)NO)C(=O)N[C@H](C(=O)N1CCC[C@H]1CO)C(C)C [Actinonine]
inhibition of proliferation (number of metabolically active cells) [1]: Inhibition of the Proliferation
inhibition of DNA synthesis [5]: inhibited, in a more than additive and, at lower concentrations, also in a superadditive manner
inhibition of DNA synthesis [6, 10]: inhibited, in a more than additive to superadditive manner
inhibition of proliferation (number of metabolically active cells) [7, 13]: Inhibition of the Proliferation
inhibition of proliferation (number of metabolically active cells) [2]: Inhibition of the Proliferation
inhibition of DNA synthesis [8, 15]: inhibited, in a more than additive to superadditive manner

C[C@H](CS)C(=O)N1CCC[C@H]1C(=O)O [Captopril]
inhibition of DNA synthesis [6, 9]: inhibited, in a more than additive to superadditive manner
inhibition of DNA synthesis [8, 14]: inhibited, in a more than additive to superadditive manner

CC(NC(=O)OC(C)(C)C)C(=O)N1CCSC1 (stereo not shown) [Boc-Ala thiazolidide]
inhibition of DNA synthesis [6, 11]: inhibited, in an increased manner
inhibition of DNA synthesis [8, 16]: inhibited, in a more than additive to superadditive manner
